Experimental data taken from ChEMBL document CHEMBL1201862, “PubChem BioAssay data set” (2004).
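Method: 48-hour compound exposure of cells in 96-well plates, five concentrations, linear interpolation of endpoints. GI50 marks 50% less growth.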 Calls of active or inactive are those of the source. Cut-off read from the data, not from the text of the source: active = GI50 up to about 1.1 µM and inactive = higher.

Tests used:
Assay in all cases: NCI anticancer screen, dose series, 48 h
A498 = tested on: A498
COLO 205 = tested on: COLO 205
DU-145 = tested on: DU-145
HCT-116 = tested on: HCT-116
HCT-15 = tested on: HCT-15
HL-60 = tested on: HL-60
MCF7 = tested on: MCF7
MDA-MB-435 = tested on: MDA-MB-435
MDA-N = tested on: MDA-N
NCI-H522 = tested on: NCI-H522
NCI/ADR-RES = tested on: NCI/ADR-RES
OVCAR-8 = tested on: OVCAR-8
SF-268 = tested on: SF-268
SK-OV-3 = tested on: SK-OV-3
SNB-19 = tested on: SNB-19
SW-620 = tested on: SW-620
UO-31 = tested on: UO-31
MDA-MB-231 = tested on: MDA-MB-231
OVCAR-4 = tested on: OVCAR-4
RPMI-8226 = tested on: RPMI-8226

| Structure (SMILES) | GI50 (A498) | GI50 (COLO 205) | GI50 (DU-145) | GI50 (HCT-116) | GI50 (HCT-15) [µM] | GI50 (HL-60) | GI50 (MCF7) | GI50 (MDA-MB-435) | GI50 (MDA-N) | GI50 (NCI-H522) | GI50 (NCI/ADR-RES) | GI50 (OVCAR-8) | GI50 (SF-268) | GI50 (SK-OV-3) | GI50 (SNB-19) | GI50 (SW-620) | GI50 (UO-31) | GI50 (MDA-MB-231) | GI50 (OVCAR-4) | GI50 (RPMI-8226) |
| --- | --- | --- | --- | --- | --- | --- | --- | --- | --- | --- | --- | --- | --- | --- | --- | --- | --- | --- | --- | --- |
| O=C(O)c1cc(CCc2ccc(O)c(O)c2)ccc1O | > 100 µM (inactive) | > 100 µM (inactive) | > 100 µM (inactive) | > 100 µM (inactive) | > 100 | 23.2 µM (inactive) | > 100 µM (inactive) | > 100 µM (inactive) | 18.4 µM (inactive) | > 100 µM (inactive) | > 100 µM (inactive) | > 100 µM (inactive) | > 100 µM (inactive) | > 100 µM (inactive) | > 100 µM (inactive) | > 100 µM (inactive) | > 100 µM (inactive) |  |  |  |
| COC1CC(OC2CCC3(C)C(=CCC4C3C(OC(C)=O)C(OC(=O)CC(C)C)C3(C)C(C(C)=O)CCC43O)C2)OC(C)C1OC1CC(OC)C(OC2CC(OC)C(OC3OC(C)C(O)C(OC)C3O)C(C)O2)C(C)O1 (stereo not drawn) | > 100 µM (inactive) | 22 µM (inactive) | 40.6 µM (inactive) | 26.7 µM (inactive) | 27.3 | 14.9 µM (inactive) | 21.9 µM (inactive) | 25.1 µM (inactive) | 32.1 µM (inactive) | 37.9 µM (inactive) |  | 29.2 µM (inactive) | 54.1 µM (inactive) | 51.1 µM (inactive) | 86.5 µM (inactive) | 31.3 µM (inactive) | 26.1 µM (inactive) | 26.5 µM (inactive) | 39.5 µM (inactive) | 17.7 µM (inactive) |
| CCN1C[C@]2(COC)[C@H](O)C[C@H](OC)[C@]34C1[C@H]([C@H](OC)[C@H]23)[C@]1(OC(C)=O)[C@H]2[C@@H](OC(=O)c3ccccc3)[C@](O)(C[C@H]24)[C@@H](OC)[C@@H]1O | > 100 µM (inactive) | > 100 µM (inactive) | > 100 µM (inactive) | > 100 µM (inactive) | > 100 | > 100 µM (inactive) | > 100 µM (inactive) | > 100 µM (inactive) |  | > 100 µM (inactive) | > 100 µM (inactive) | > 100 µM (inactive) | > 100 µM (inactive) | > 100 µM (inactive) | > 100 µM (inactive) | > 100 µM (inactive) | > 100 µM (inactive) | > 100 µM (inactive) | > 100 µM (inactive) |  |
| CC(=O)CC1=C(OC(C)C)C2(OCCO2)C1O (stereo not drawn) | > 100 µM (inactive) | > 100 µM (inactive) | > 100 µM (inactive) | > 100 µM (inactive) | > 100 | > 100 µM (inactive) | > 100 µM (inactive) | > 100 µM (inactive) | > 100 µM (inactive) | > 100 µM (inactive) |  | > 100 µM (inactive) | > 100 µM (inactive) | > 100 µM (inactive) | > 100 µM (inactive) | > 100 µM (inactive) | > 100 µM (inactive) | > 100 µM (inactive) | > 100 µM (inactive) |  |
| COc1ccc(-c2c(C(=O)Nc3ccccc3)c(-c3ccccc3)n(C3OC(CO)C(O)C(O)C3O)c(=S)c2C#N)cc1 (stereo not drawn) | > 100 µM (inactive) | > 100 µM (inactive) | > 100 µM (inactive) | > 100 µM (inactive) | > 100 | > 100 µM (inactive) | > 100 µM (inactive) | > 100 µM (inactive) | > 100 µM (inactive) | > 100 µM (inactive) | > 100 µM (inactive) | > 100 µM (inactive) | > 100 µM (inactive) |  | > 100 µM (inactive) | > 100 µM (inactive) | > 100 µM (inactive) |  | > 100 µM (inactive) | > 100 µM (inactive) |
| Cc1cc2cc3c(Cl)c(CCCl)c(C)nc3cc2c(Cl)c1CCCl | 19.2 µM (inactive) | 16.6 µM (inactive) | 21.6 µM (inactive) | 15.8 µM (inactive) | 24.9 | 11.5 µM (inactive) | 26.9 µM (inactive) | 15.6 µM (inactive) |  | 19.2 µM (inactive) | 22.9 µM (inactive) | 24.1 µM (inactive) | 11.2 µM (inactive) |  | 16.4 µM (inactive) | 24.8 µM (inactive) | 16.1 µM (inactive) |  | 18.1 µM (inactive) | 14 µM (inactive) |
| Brc1ccc2c(c1)-c1nc3nc4c(cc3cc1CC2)CCc1ccc(Br)cc1-4 | > 100 µM (inactive) | > 100 µM (inactive) |  | > 100 µM (inactive) | > 100 |  | > 100 µM (inactive) | 5.65 µM (inactive) | > 100 µM (inactive) | > 100 µM (inactive) | > 100 µM (inactive) | > 100 µM (inactive) | > 100 µM (inactive) | > 100 µM (inactive) | > 100 µM (inactive) | > 100 µM (inactive) | > 100 µM (inactive) | > 100 µM (inactive) | 0.47 µM (active) | > 100 µM (inactive) |
| COc1ccc2oc(=O)c(-c3nc4ccccc4s3)cc2c1 | 20.8 µM (inactive) | 54.1 µM (inactive) | 21.8 µM (inactive) | 11.6 µM (inactive) | > 79.6 | > 100 µM (inactive) |  | 12 µM (inactive) | 20.1 µM (inactive) | 29.4 µM (inactive) | 28.8 µM (inactive) | 14.9 µM (inactive) | 34 µM (inactive) | 13.6 µM (inactive) | 46.7 µM (inactive) | 32.6 µM (inactive) | 13.9 µM (inactive) | 18.7 µM (inactive) | 20.8 µM (inactive) | > 62.7 µM (inactive) |
| O=C(O)c1ccccc1/C=C1\Cc2ccc3c(c2C1=O)CCCC3 | 30.8 µM (inactive) | 34.4 µM (inactive) | 41.4 µM (inactive) | 30.1 µM (inactive) | 37.1 | 26.4 µM (inactive) | 48.3 µM (inactive) | 44.7 µM (inactive) |  | 25.2 µM (inactive) | 32.1 µM (inactive) | 68.7 µM (inactive) | 64 µM (inactive) | 94.8 µM (inactive) | 39.4 µM (inactive) | 30.8 µM (inactive) | 63.5 µM (inactive) | 21.4 µM (inactive) | 41.6 µM (inactive) | 26.9 µM (inactive) |
| COc1cccc2c1c1ccc3c(c1n2C)C(=O)C=CC3=O | > 100 µM (inactive) | 6.15 µM (inactive) |  | 14.2 µM (inactive) | 17.7 | 1.51 µM (inactive) |  |  |  | 3.89 µM (inactive) |  | 15.3 µM (inactive) | 17.8 µM (inactive) | > 100 µM (inactive) | > 100 µM (inactive) | 12.1 µM (inactive) | 18.6 µM (inactive) |  | 17.5 µM (inactive) | 2.81 µM (inactive) |
| CCCCC1=CC1(C#N)[N+](=O)[O-] (stereo not drawn) | 76.2 µM (inactive) | > 100 µM (inactive) | > 100 µM (inactive) | 33.1 µM (inactive) | > 100 | > 10 µM (inactive) | 45.4 µM (inactive) | > 100 µM (inactive) |  | 45.6 µM (inactive) | > 100 µM (inactive) | > 100 µM (inactive) | > 100 µM (inactive) | > 100 µM (inactive) | > 100 µM (inactive) | 31.8 µM (inactive) | > 100 µM (inactive) | > 100 µM (inactive) | > 100 µM (inactive) | 25.1 µM (inactive) |
| O=C(CSc1nccc(=O)[nH]1)c1ccccc1 |  | > 100 µM (inactive) | > 100 µM (inactive) | > 100 µM (inactive) | > 100 | > 100 µM (inactive) | 91 µM (inactive) | 62.2 µM (inactive) |  | > 100 µM (inactive) | 37.2 µM (inactive) | > 100 µM (inactive) | > 100 µM (inactive) | > 100 µM (inactive) | > 100 µM (inactive) | > 100 µM (inactive) | > 100 µM (inactive) | 61.5 µM (inactive) | > 100 µM (inactive) |  |
| CC(=O)Oc1cc2c(n(C)c1=O)CCC2 | > 100 µM (inactive) | > 100 µM (inactive) | > 100 µM (inactive) | > 100 µM (inactive) | 33.6 | 81.5 µM (inactive) | > 100 µM (inactive) | > 100 µM (inactive) |  | > 10 µM (inactive) | 35.5 µM (inactive) | 94.4 µM (inactive) | > 100 µM (inactive) | > 100 µM (inactive) | > 100 µM (inactive) | > 100 µM (inactive) | 99.5 µM (inactive) | > 100 µM (inactive) | > 100 µM (inactive) |  |
| CC(=O)NC1C(OCc2ccccc2)OC(CO)C(O)C1OCC(=O)N[C@@H](C)C(=O)N[C@H](CCC(=O)NCCCNc1ccc([N+](=O)[O-])c2[nH]c3ccccc3c(=O)c12)C(N)=O (stereo partly drawn) | > 100 µM (inactive) | > 100 µM (inactive) | 60.8 µM (inactive) | 45.4 µM (inactive) | 94.2 | > 100 µM (inactive) |  | > 100 µM (inactive) | > 100 µM (inactive) | 29.3 µM (inactive) | > 100 µM (inactive) | 92.9 µM (inactive) |  | > 100 µM (inactive) | 37.4 µM (inactive) | > 100 µM (inactive) | > 100 µM (inactive) | > 100 µM (inactive) | 34 µM (inactive) | > 100 µM (inactive) |
| c1ccc(/N=C2\c3ccccc3CN2c2ccccn2)nc1 | > 100 µM (inactive) | 58.6 µM (inactive) | > 100 µM (inactive) | 74.3 µM (inactive) | > 100 | < 0.01 µM (active) | 49.9 µM (inactive) | > 100 µM (inactive) | > 100 µM (inactive) | 61.7 µM (inactive) |  | > 100 µM (inactive) | > 100 µM (inactive) | > 100 µM (inactive) | > 100 µM (inactive) | > 100 µM (inactive) | > 100 µM (inactive) | > 100 µM (inactive) | > 100 µM (inactive) | 78 µM (inactive) |
